From patent US11571418B2, “Platinum compounds that inhibit constitutive STAT3 signaling and induce cell cycle arrest and apoptosis of malignant cells” (H. LEE MOFFITT CANCER CENTER AND RESEARCH INSTITUTE, INC., priority 2011, dated 2023)

Key:
[1] = tested on: Stat3-dependent firefly luciferase reporter pLucTKS3; assay: Stat3-dependent luciferase reporter assay; type: cell-based, mouse; details: stable NIH3T3/v-Src/pLucTKS3, 48 h
Protocol: FIGS. 3A-3D. Inhibition of Stat3-mediated gene expression by PLATINUM-401. (FIG. 3A) and (FIG. 3B) v-Src-transformed mouse fibroblasts that stably express Stat3-dependent (NIH3T3/v-Src/pLucTKS3) and Stat3-independent (NIH3T3/v-Src/pRLSRE) luciferase reporters or β-galactosidase (β-gal), as well as normal mouse fibroblast (NIH3T3) transiently transfected with pLucTKS3, pGL2-VEGF-Luc, NFkB-Luc or pLucSRE together with or without v-Src were treated with or without PLATINUM-401 for 48 h. Cytosolic extracts were then prepared from cells for luciferase and […] activities measurements. […]
Cytosolic extract preparation and luciferase assays—Cytosolic extract preparation from fibroblasts and luciferase assays were previously described (Turkson et al., 1998; Turkson et al., 1999). […] Cells were resuspended in 0.4 ml of low-salt HEPES buffer (10 mM HEPES [pH 7.8], 10 mM KCl, 0.1 mM EGTA, 0.1 mM EDTA, 1 mM phenylmethylsulfonyl fluoride (PMSF), and 1 mM dithiothreitol (DTT)) for 15 min, lysed by the addition of 20 μl of 10% Nonidet P-40 (NP-40), and centrifuged (10,000×g, 30 s, 4° C.) to obtain the cytosolic supernatant, which was used for luciferase assays (Promega) measured with a luminometer. […]
To further investigate the activities of PLATINUM-401, the inventors treated malignant cells and measured effects on Stat3 signaling. […]

MDA-MB-453 = assay: Ki67 proliferation index by immunohistochemistry; type: cell-based, human; details: no persistent Stat3 activity
Protocol: FIGS. 5A and 5B. Evaluation for effects of PLATINUM-401 on cellular constitutive Stat3 activation and cell proliferation. Normal or malignant cells were treated with or without PLATINUM-401 and nuclear extracts were prepared for Stat3 DNA-binding activity assay with hSIE probe, or cells were processed for nuclear Ki67 immunohistochemistry. (FIG. 5A) EMSA analysis of Stat3 DNA-binding activity; (FIG. 5B) Graphical representations of quantified nuclear staining of Ki-67 proliferation index. Stat3:Stat3-DNA complexes in gels are labeled. The Ki-67 proliferation indexes were calculated as the percent positive tumor cells relative to the total number of cells. […]
Immunohistochemistry—The indirect peroxidase-antiperoxidase test was performed on cytospins prepared from cell lines (control and treated). […] The presence of Ki-67 nuclear staining was calculated as percent positive tumor cells in relation to the total number of cells.
The inventors further examined the biological effects of PLATINUM-401 and determined whether any changes might correlate with the inhibition of constitutively-active Stat3. […]
Changes in cell proliferation induced by treatment with PLATINUM-401 were assayed in terms of Ki67 proliferation index by immunohistochemistry. The presence of Ki-67 nuclear staining was calculated as the percent positive tumor cells in relation to the total number of cells.

## CC(O)CN1CCN(CC(C)O)CC1 (centres unmarked) [PLATINUM-401]
[1]
  induction of Stat3-dependent reporter: strongly suppresses
MDA-MB-453
  proliferation (Ki67 index): lack of effect
